Active and inactive are the calls of the source. No cut-off for these calls is given here.

Broadly, the IC50 is the point on the concentration scale where inhibition reaches its midpoint.

In the first experiment the target is Mushroom tyrosinase (Agaricus bisporus, UniProt O42713+Q00024+C7FF04+C7FF05). Nature of the experiment: Inhibition of mushroom tyrosinase using L-tyrosine as substrate measured after 20 mins.
For the compound `O=c1cc(CSc2ccc(O)cc2)occ1O`, the IC50 is 0.54 µM.

In a further experiment the target is T1, Tyrosinase (Agaricus bisporus) (UniProt O42713).
T1 sequence (whole entry): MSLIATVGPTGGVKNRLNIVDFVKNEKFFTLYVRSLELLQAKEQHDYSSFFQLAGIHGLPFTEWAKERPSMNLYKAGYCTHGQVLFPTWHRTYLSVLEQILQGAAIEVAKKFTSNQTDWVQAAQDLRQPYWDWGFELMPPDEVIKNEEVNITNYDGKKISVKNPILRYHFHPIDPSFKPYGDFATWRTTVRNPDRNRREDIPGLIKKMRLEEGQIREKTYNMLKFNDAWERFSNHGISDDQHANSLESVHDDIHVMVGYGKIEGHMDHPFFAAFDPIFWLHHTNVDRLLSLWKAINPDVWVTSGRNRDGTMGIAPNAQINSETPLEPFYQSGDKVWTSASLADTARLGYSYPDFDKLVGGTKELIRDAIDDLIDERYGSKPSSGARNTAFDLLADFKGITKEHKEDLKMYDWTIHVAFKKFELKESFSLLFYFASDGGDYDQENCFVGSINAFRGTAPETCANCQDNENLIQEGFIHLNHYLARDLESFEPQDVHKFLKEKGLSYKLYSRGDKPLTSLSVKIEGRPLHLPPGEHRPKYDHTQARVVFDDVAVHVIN
As to the kind of experiment: (§1) Inhibition of mushroom tyrosinase diphenolase activity assessed as reduction in dopachrome formation using L-DOPA as substrate preincubated for 20 mins followed by substrate addition measured for 1 min.
Turning to `O=c1cc(CSc2nnc(-c3ccccc3)n2NCc2ccc(O)cc2O)occ1O`, the inhibition result is “Dose-dependent effect”.

In another experiment the target is T2, Tyrosinase (Agaricus bisporus, UniProt O42713).
T2 sequence (O42713 whole entry): T1 sequence (whole entry)
The experiment is described as §1.
In the case of `O=c1cc(CSc2nncn2/N=C/c2ccc(O)cc2)occ1O`, the IC50 worked out at 8.54 µM.
On the same count and under the same terms, under `O=c1cc(CSc2nnc(-c3ccc(Cl)cc3)n2NCc2ccccc2O)occ1O` stands 1.71 µM.
The same measure, in the same setting: the value for `O=c1cc(CSc2nncn2/N=C/c2ccc(O)cc2O)occ1O` was 9.6 µM; that for `Cc1nnc(SCc2cc(=O)c(O)co2)n1NCc1ccccc1O` was 10.2 µM; that for `Cc1ccc(-c2nnc(SCc3cc(=O)c(O)co3)n2NCc2ccccc2O)cc1` was 3.8 µM.
For the compound `O=c1cc(CSc2nnc(-c3cccc(Cl)c3)n2NCc2ccccc2O)occ1O`, the IC50 turned out to be 2.5 µM.
With `O=c1cc(CSc2nnc(-c3ccccc3)n2NCc2ccccc2O)occ1O`, the IC50 amounted to 1.5 µM.
The same measure, in the same setting: under `Cc1nnc(SCc2cc(=O)c(O)co2)n1NCc1ccc(O)cc1O` stands 5.8 µM; under `CCc1nnc(SCc2cc(=O)c(O)co2)n1NCc1ccccc1O`, 7.6 µM.
In the case of `Cc1nnc(SCc2cc(=O)c(O)co2)n1NCc1cccc(O)c1`, the IC50 stood at 12.5 µM.
For the compound `O=c1cc(CSc2nnc(-c3ccccc3Cl)n2/N=C/c2ccc(O)c(O)c2)occ1O`, the IC50 came out at 5.2 µM.
The same measure, in the same setting: the value for `O=c1cc(CSc2nncn2NCc2ccccc2O)occ1O` was 5.85 µM; that for `O=c1cc(CSc2nnc(-c3ccccc3)n2NCc2ccc(O)cc2O)occ1O` was 1.35 µM.
Regarding `COc1cc(/C=N/n2cnnc2SCc2cc(=O)c(O)co2)ccc1O`, the IC50 was determined as 17.5 µM.

The target in the next experiment is T1, Tyrosinase (Agaricus bisporus). Nature of the experiment: Competitive inhibition of mushroom tyrosinase up to 1.2 uM using varying levels of L-DOPA as substrate preincubated for 20 mins followed by substrate addition measured for 1 min by Lineweaver-Burk plot analysis.
Consider `O=c1cc(CSc2nnc(-c3ccccc3)n2NCc2ccc(O)cc2O)occ1O`, for which the inhibition entry is “Active”.

Values taken from ChEMBL document CHEMBL4000199, “Synthesis and biological evaluation of novel hydroxybenzaldehyde-based kojic acid analogues as inhibitors of mushroom tyrosinase” (Bioorg Med Chem Lett, 2017).
